Measurements reported in US10717716B2, “1,3,4-oxadiazole derivative compounds as histone deacetylase 6 inhibitor, and the pharmaceutical composition comprising the same” (Chong Kun Dang Pharmaceutical Corp., priority 2015, dated 2020).

Molecular target: T1, human recombinant HDAC6 (Homo sapiens, UniProt Q9UBN7)
T1 construct: purchased Calbiochem 382180
T1 sequence (Q9UBN7 1-1215): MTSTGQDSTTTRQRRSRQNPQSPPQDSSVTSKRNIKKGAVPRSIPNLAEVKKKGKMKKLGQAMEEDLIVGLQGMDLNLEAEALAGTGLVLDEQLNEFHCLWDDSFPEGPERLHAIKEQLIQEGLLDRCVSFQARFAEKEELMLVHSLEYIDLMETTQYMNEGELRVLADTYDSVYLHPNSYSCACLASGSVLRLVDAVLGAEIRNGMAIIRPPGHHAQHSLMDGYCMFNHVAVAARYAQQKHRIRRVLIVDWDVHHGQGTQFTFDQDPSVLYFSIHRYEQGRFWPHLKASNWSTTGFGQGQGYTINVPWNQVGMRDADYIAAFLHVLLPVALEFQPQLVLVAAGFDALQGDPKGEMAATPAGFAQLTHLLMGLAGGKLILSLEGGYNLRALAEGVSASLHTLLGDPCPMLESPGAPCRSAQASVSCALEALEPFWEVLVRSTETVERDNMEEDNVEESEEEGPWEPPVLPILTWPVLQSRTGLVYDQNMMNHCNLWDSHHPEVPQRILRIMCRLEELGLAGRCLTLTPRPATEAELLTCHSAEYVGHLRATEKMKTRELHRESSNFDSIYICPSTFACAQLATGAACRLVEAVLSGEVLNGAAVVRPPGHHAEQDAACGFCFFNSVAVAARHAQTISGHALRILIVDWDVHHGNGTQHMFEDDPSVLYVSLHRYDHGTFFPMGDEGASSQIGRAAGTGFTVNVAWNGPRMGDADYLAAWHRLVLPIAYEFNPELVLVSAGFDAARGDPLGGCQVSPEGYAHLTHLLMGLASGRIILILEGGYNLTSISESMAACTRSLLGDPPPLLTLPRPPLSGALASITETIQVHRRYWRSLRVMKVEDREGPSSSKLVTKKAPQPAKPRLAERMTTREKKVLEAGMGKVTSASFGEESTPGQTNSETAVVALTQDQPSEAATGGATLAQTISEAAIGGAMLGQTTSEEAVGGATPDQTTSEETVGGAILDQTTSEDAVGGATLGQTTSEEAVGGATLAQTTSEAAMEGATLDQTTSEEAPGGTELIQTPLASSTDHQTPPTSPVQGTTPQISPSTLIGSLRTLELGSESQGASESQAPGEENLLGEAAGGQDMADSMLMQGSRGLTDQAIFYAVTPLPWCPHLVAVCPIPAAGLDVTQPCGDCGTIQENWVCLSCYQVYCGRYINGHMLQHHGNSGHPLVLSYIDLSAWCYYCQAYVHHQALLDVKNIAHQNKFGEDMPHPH
Test: HDAC6 enzyme activity inhibition assay (HDAC Fluorimetric Drug Discovery Kit)
Type: biochemical
Conditions: for HDAC6 selectivity (fold): HDAC6 over HDAC1; for IC50: human recombinant HDAC6, same protocol as HDAC1, read-out: HDAC6
Summary of the method: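 Human recombinant HDAC1 or HDAC6 (0.3 μg) reacted with 10 μM Fluor de Lys-SIRT1 substrate and 5-fold compound dilutions for 60 min at 30 °C. Developer II added for 30 min, fluorescence read at Ex 360/Em 460; IC50 calculated from the readings.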

For CC(C)(C)N1CCN(C(=O)N(Cc2ccc(-c3nnc(C(F)(F)F)o3)cc2F)c2ccccc2)CC1 [Compound 21382, 4-(Tert-butyl)-N-(2-fluoro-4-(5-(trifluoromethyl)-1,3,4-oxadiazol-2-yl)benzyl)-N-phenylpiperazine-1-carboxamide], the “HDAC6 selectivity (fold)” value was 127 fold and the IC50 was 79 nM.

In the case of CC(C)(O)CN1CCN(C(=O)N(Cc2ccc(-c3nnc(C(F)(F)F)o3)cc2)c2ccccc2)CC1 [Compound 21396, 4-(2-hydroxy-2-methylpropyl)-N-phenyl-N-(4-(5-(trifluoromethyl)-1,3,4-oxadiazol-2-yl)benzyl)piperazine-1-carboxamide], the “HDAC6 selectivity (fold)” value is reported as 34 fold and the IC50 is reported as 292 nM.

For COc1cccc(N(Cc2ccc(-c3nnc(C(F)F)o3)cn2)C(=O)N2CCN(C3COC3)CC2)c1 [Compound 21950, N-((5-(5-(Difluoromethyl)-1,3,4-oxadiazol-2-yl)pyridin-2-yl)methyl)-N-(3-methoxyphenyl)-4-(oxetan-3-yl)piperazine-1-carboxamide], the “HDAC6 selectivity (fold)” value was 64 fold and the IC50 was 157 nM.

In the case of Cc1cccc(N(Cc2ccc(-c3nnc(C(F)F)o3)cc2F)C(=O)N2CCS(=O)(=O)CC2)c1 [Compound 21484, N-(4-(5-(difluoromethyl)-1,3,4-oxadiazol-2-yl)-2-fluorobenzyl)-N-(m-tolyl)thiomorpholine-4-carboxamide 1,1-dioxide], the “HDAC6 selectivity (fold)” value is reported as 476 fold and the IC50 is reported as 21 nM.

CN1CCN(C(=O)N(Cc2ccc(-c3nnc(C(F)F)o3)cc2F)c2cccc(Br)c2)CC1 [Compound 21465, N-(3-bromophenyl)-N-(4-(5-(difluoromethyl)-1,3,4-oxadiazol-2-yl)-2-fluorobenzyl)-4-methylpiperazine-1-carboxamide] was tested, and the “HDAC6 selectivity (fold)” value was 333 fold and the IC50 was 30 nM.

For COc1ccc(N(Cc2ccc(-c3nnc(C(F)(F)F)o3)cc2F)C(=O)N2CCS(=O)(=O)CC2)cc1 [Compound 21477, N-(2-fluoro-4-(5-(trifluoromethyl)-1,3,4-oxadiazol-2-yl)benzyl)-N-(4-methoxyphenyl)thiomorpholine-4-carboxamide 1,1-dioxide], the “HDAC6 selectivity (fold)” value was 137 fold and the IC50 was 73 nM.

In the case of O=C(N1CCS(=O)(=O)CC1)N(Cc1ccc(-c2nnc(C(F)F)o2)cc1F)c1ccc(CN2CCN(Cc3ccccc3)CC2)cc1 [Compound 21900, N-(4-((4-benzylpiperazin-1-yl)methyl)phenyl)-N-(4-(5-(difluoromethyl)-1,3,4-oxadiazol-2-yl)-2-fluorobenzyl)thiomorpholine-4-carboxamide 1,1-dioxide], the “HDAC6 selectivity (fold)” value is reported as 53 fold and the IC50 is reported as 190 nM.

With O=C(N1CCS(=O)(=O)CC1)N(Cc1ccc(-c2nnc(C(F)F)o2)cc1)c1ccc(-c2ccccc2)cc1 [Compound 21486, N-([1,1′-biphenyl]-4-yl)-N-(4-(5-(difluoromethyl)-1,3,4-oxadiazol-2-yl)benzyl)thiomorpholine-4-carboxamide 1,1-dioxide] the “HDAC6 selectivity (fold)” value was 120 fold and the IC50 was 83 nM.

In the case of CCN1CCN(C(=O)N(Cc2ccc(-c3nnc(C(F)F)o3)cc2F)c2ccc(F)c(Cl)c2)CC1 [Compound 21591, N-(3-chloro-4-fluorophenyl)-N-(4-(5-(difluoromethyl)-1,3,4-oxadiazol-2-yl)-2-fluorobenzyl)-4-ethylpiperazine-1-carboxamide], the “HDAC6 selectivity (fold)” value is reported as 668 fold and the IC50 is reported as 15 nM.

For O=C(N1CCOCC1)N(Cc1ccc(-c2nnc(C(F)F)o2)cn1)c1ccccc1 [Compound 21630, N-((5-(5-(difluoromethyl)-1,3,4-oxadiazol-2-yl)pyridin-2-yl)methyl)-N-phenylmorpholine-4-carboxamide], the “HDAC6 selectivity (fold)” value was 549 fold and the IC50 was 18 nM.

With CC(C)COC(=O)N(Cc1ccc(-c2nnc(C(F)F)o2)cc1)c1ccccc1 [Compound 21570, Isobutyl (4-(5-(difluoromethyl)-1,3,4-oxadiazol-2-yl)benzyl)(phenyl)carbamate] the “HDAC6 selectivity (fold)” value was 32 fold and the IC50 was 309 nM.

For COc1ccc(N(Cc2ccc(-c3nnc(C(F)(F)F)o3)cn2)C(=O)N2CCS(=O)(=O)CC2)cc1 [Compound 21454, N-(4-methoxyphenyl)-N-((5-(5-(trifluoromethyl)-1,3,4-oxadiazol-2-yl)pyridin-2-yl)methyl)thiomorpholine-4-carboxamide 1,1-dioxide], the “HDAC6 selectivity (fold)” value was 94 fold and the IC50 was 106 nM.

In the case of CC(C)(C)c1ccc(N(Cc2ccc(-c3nnc(C(F)F)o3)cc2)C(=O)N2CCS(=O)(=O)CC2)cc1 [Compound 21459, N-(4-(tert-butyl)phenyl)-N-(4-(5-(difluoromethyl)-1,3,4-oxadiazol-2-yl)benzyl)thiomorpholine-4-carboxamide 1,1-dioxide], the “HDAC6 selectivity (fold)” value is reported as 1 fold.

With O=C(N1CCS(=O)(=O)CC1)N(Cc1ccc(-c2nnc(C(F)(F)F)o2)cc1F)c1cccc(OC(F)(F)F)c1 [Compound 21528, N-(2-fluoro-4-(5-(trifluoromethyl)-1,3,4-oxadiazol-2-yl)benzyl)-N-(3-(trifluoromethoxy)phenyl)thiomorpholine-4-carboxamide 1,1-dioxide] the “HDAC6 selectivity (fold)” value was 47 fold and the IC50 was 214 nM.

With O=C(N1CCS(=O)(=O)CC1)N(Cc1ccc(-c2nnc(C(F)F)o2)cc1)c1ccc(-c2ccoc2)cc1 [Compound 21492, N-(4-(5-(difluoromethyl)-1,3,4-oxadiazol-2-yl)benzyl)-N-(4-(furan-3-yl)phenyl)thiomorpholine-4-carboxamide 1,1-dioxide] the “HDAC6 selectivity (fold)” value was 278 fold and the IC50 was 36 nM.

For CN1CCN(C(=O)N(Cc2ccc(-c3nnc(C(F)F)o3)cc2F)c2ccc(Br)cc2)CC1 [Compound 21466, N-(4-bromophenyl)-N-(4-(5-(difluoromethyl)-1,3,4-oxadiazol-2-yl)-2-fluorobenzyl)-4-methylpiperazine-1-carboxamide], the “HDAC6 selectivity (fold)” value was 128 fold and the IC50 was 78 nM.

C[C@@H]1CN(C(=O)N(Cc2ccc(-c3nnc(C(F)(F)F)o3)cc2)c2ccccc2)C[C@H](C)N1 [Compound 21385, (3S,5R)-3,5-Dimethyl-N-phenyl-N-(4-(5-(trifluoromethyl)-1,3,4-oxadiazol-2-yl)benzyl)piperazine-1-carboxamide] was tested, and the “HDAC6 selectivity (fold)” value was 175 fold and the IC50 was 57 nM.

CCc1ccc(N(Cc2ccc(-c3nnc(C(F)F)o3)cc2F)C(=O)N2CCS(=O)(=O)CC2)cc1 [Compound 21512, N-(4-(5-(difluoromethyl)-1,3,4-oxadiazol-2-yl)-2-fluorobenzyl)-N-(4-ethylphenyl)thiomorpholine-4-carboxamide 1,1-dioxide] was tested, and the “HDAC6 selectivity (fold)” value was 108 fold and the IC50 was 93 nM.

With O=C(N1CCN(C2COC2)CC1)N(Cc1ccc(-c2nnc(C(F)F)o2)cc1F)c1ccc(F)cc1 [Compound 21940, N-(4-(5-(Difluoromethyl)-1,3,4-oxadiazol-2-yl)-2-fluorobenzyl)-N-(4-fluorophenyl)-4-(oxetan-3-yl)piperazine-1-carboxamide] the “HDAC6 selectivity (fold)” value was 118 fold and the IC50 was 85 nM.

CS(=O)(=O)N1CCC2(CC1)CN(C(=O)N(Cc1ccc(-c3nnc(C(F)F)o3)cc1F)c1ccccc1)C2 [Compound 21501, N-(4-(5-(difluoromethyl)-1,3,4-oxadiazol-2-yl)-2-fluorobenzyl)-7-(methylsulfonyl)-N-phenyl-2,7-diazaspiro[3.5]nonane-2-carboxamide] was tested, and the “HDAC6 selectivity (fold)” value was 357 fold and the IC50 was 28 nM.
